Test results as given in patent US6355799B1, “Substituted benzene compounds, process for their preparation, and herbicidal and defoliant compositions containing them” (ISK Americas Incorporated, priority 1997, dated 2002).

Tests used:
Type in all cases: in vivo
[1] = tested on: redroot pigweed (Amaranthus retroflexus, AMARE); assay: Pre-emerge test, greenhouse herbicide activity screening; details: pre-emerge, rated 14 days after application, 0 = no damage, 100 = complete death
Summary of the method: (§1)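 Plants grown in 10 cm pots of sandy loam mix received acetone-dissolved compounds through a moving flat-fan nozzle. Doses ranged from 15 to 1000 g ai/ha. Pre-emerge pots were seeded one day earlier, post-emerge pots 8–21 days earlier. Fourteen days on, each pot was graded 0–100 for damage.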

[2] = tested on: barnyardgrass (Echinochloa crus-galli, ECHCG); assay: as above; details: pre-emerge, rated 14 days after application, 0 = no damage, 100 = complete death
Summary of the method: (§2)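 Rating: 0–100 visual injury, 14 DAA. Application: acetone, 187 l/ha, 15–1000 g ai/ha, flat-fan track sprayer with nozzle 40–45 cm above soil or canopy. Post-emerge runs used 0.25% v/v surfactant on 2–3 leaf plants.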

[3] = tested on: green foxtail (Setaria viridis, SETVI); assay: as above; details: pre-emerge, rated 14 days after application, 0 = no damage, 100 = complete death
Summary of the method: as §2

[4] = tested on: ivyleaf morningglory (Ipomoea hederacea, IPOHE); assay: as above; details: pre-emerge, rated 14 days after application, 0 = no damage, 100 = complete death
Summary of the method: as §2

[5] = tested on: johnsongrass (Sorghum halepense, SORHA); assay: as above; details: pre-emerge, rated 14 days after application, 0 = no damage, 100 = complete death
Summary of the method: as §2

[6] = tested on: lambsquarters (Chenopodium album, CHEAL); assay: as above; details: pre-emerge, rated 14 days after application, 0 = no damage, 100 = complete death
Summary of the method: as §2

[7] = tested on: large crabgrass (Digitaria sanguinalis, DIGSA); assay: as above; details: pre-emerge, rated 14 days after application, 0 = no damage, 100 = complete death
Summary of the method: as §2

[8] = tested on: sicklepod (Cassia obtusifolia, CASOB); assay: as above; details: pre-emerge, rated 14 days after application, 0 = no damage, 100 = complete death
Summary of the method: as §2

[9] = tested on: velvetleaf (Abutilon theophrasti, ABUTH); assay: as above; details: pre-emerge, rated 14 days after application, 0 = no damage, 100 = complete death
Summary of the method: as §2

[10] = tested on: field corn (Zea mays L., var. Dekalb 535, CORN); assay: Pre-emerge test, crop safety; details: pre-emerge, rated 14 days after application, 0 = no damage, 100 = complete death
Summary of the method: as §1

[11] = tested on: upland rice (Oryza sp., var. Tebonnet, RICE); assay: Pre-emerge test, crop safety; details: pre-emerge, rated 14 days after application, 0 = no damage, 100 = complete death
Summary of the method: as §1

[12] = tested on: barnyardgrass (Echinochloa crus-galli, ECHCG); assay: Post-emerge test, greenhouse herbicide activity screening; details: phytotoxicity rating 0-100 (0 no damage, 100 complete death), 14 days after application
Summary of the method: (§3)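 Compounds in acetone were track-sprayed at 15-1000 g ai/ha (187 l/ha) on sandy loam pots: pre-emerge one day after seeding, post-emerge at 2-3 leaf stage with 0.25% v/v non-ionic surfactant. Phytotoxicity was rated 14 days later on a 0 (no damage) to 100 (complete death) scale.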

[13] = tested on: green foxtail (Setaria viridis, SETVI); assay: as above; details: phytotoxicity rating 0-100 (0 no damage, 100 complete death), 14 days after application
Summary of the method: as §3

[14] = tested on: ivyleaf morningglory (Ipomoea hederacea, IPOHE); assay: as above; details: phytotoxicity rating 0-100 (0 no damage, 100 complete death), 14 days after application
Summary of the method: as §3

[15] = tested on: johnsongrass (Sorghum halepense, SORHA); assay: as above; details: phytotoxicity rating 0-100 (0 no damage, 100 complete death), 14 days after application
Summary of the method: as §3

[16] = tested on: lambsquarters (Chenopodium album, CHEAL); assay: as above; details: phytotoxicity rating 0-100 (0 no damage, 100 complete death), 14 days after application
Summary of the method: as §3

[17] = tested on: large crabgrass (Digitaria sanguinalis, DIGSA); assay: as above; details: phytotoxicity rating 0-100 (0 no damage, 100 complete death), 14 days after application
Summary of the method: as §3

[18] = tested on: redroot pigweed (Amaranthus retroflexus, AMARE); assay: as above; details: phytotoxicity rating 0-100 (0 no damage, 100 complete death), 14 days after application
Summary of the method: as §3

[19] = tested on: sicklepod (Cassia obtusifolia, CASOB); assay: as above; details: phytotoxicity rating 0-100 (0 no damage, 100 complete death), 14 days after application
Summary of the method: as §3

[20] = tested on: velvetleaf (Abutilon theophrasti, ABUTH); assay: as above; details: phytotoxicity rating 0-100 (0 no damage, 100 complete death), 14 days after application
Summary of the method: as §3

[21] = tested on: field corn (Zea mays L., var. Dekalb 535, CORN); assay: Post-emerge test, crop safety; details: phytotoxicity rating 0-100 (0 no damage, 100 complete death), 14 days after application
Summary of the method: as §1

[22] = tested on: upland rice (Oryza sp., var. Tebonnet, RICE); assay: Post-emerge test, crop safety; details: phytotoxicity rating 0-100 (0 no damage, 100 complete death), 14 days after application
Summary of the method: as §1

CCOC(=O)COc1c(Cl)cc(F)c(-n2c(=O)cc(C(F)(F)F)n(C)c2=O)c1N [Compound 1-59]
Pre-emerge Herbicidal Activity AMARE (phytotoxicity rating, scale 0-100) ([1]; 63 g ai/ha): 100 | Pre-emerge Herbicidal Activity AMARE (phytotoxicity rating, scale 0-100) ([1]; 250 g ai/ha): 100 | Pre-emerge Herbicidal Activity ECHCG (phytotoxicity rating, scale 0-100) ([2]; 63 g ai/ha): 0 | Pre-emerge Herbicidal Activity ECHCG (phytotoxicity rating, scale 0-100) ([2]; 250 g ai/ha): 70 | Pre-emerge Herbicidal Activity SETVI (phytotoxicity rating, scale 0-100) ([3]; 63 g ai/ha): 30 | Pre-emerge Herbicidal Activity SETVI (phytotoxicity rating, scale 0-100) ([3]; 250 g ai/ha): 90 | Pre-emerge Herbicidal Activity IPOHE (phytotoxicity rating, scale 0-100) ([4]; 63 g ai/ha): 100 | Pre-emerge Herbicidal Activity IPOHE (phytotoxicity rating, scale 0-100) ([4]; 250 g ai/ha): 100 | Pre-emerge Herbicidal Activity SORHA (phytotoxicity rating, scale 0-100) ([5]; 63 g ai/ha): 30 | Pre-emerge Herbicidal Activity SORHA (phytotoxicity rating, scale 0-100) ([5]; 250 g ai/ha): 85 | Pre-emerge Herbicidal Activity CHEAL (phytotoxicity rating, scale 0-100) ([6]; 63 g ai/ha): 100 | Pre-emerge Herbicidal Activity CHEAL (phytotoxicity rating, scale 0-100) ([6]; 250 g ai/ha): 100 | Pre-emerge Herbicidal Activity DIGSA (phytotoxicity rating, scale 0-100) ([7]; 63 g ai/ha): 30 | Pre-emerge Herbicidal Activity DIGSA (phytotoxicity rating, scale 0-100) ([7]; 250 g ai/ha): 90 | Pre-emerge Herbicidal Activity CASOB (phytotoxicity rating, scale 0-100) ([8]; 63 g ai/ha): 30 | Pre-emerge Herbicidal Activity CASOB (phytotoxicity rating, scale 0-100) ([8]; 250 g ai/ha): 80 | Pre-emerge Herbicidal Activity ABUTH (phytotoxicity rating, scale 0-100) ([9]; 63 g ai/ha): 100 | Pre-emerge Herbicidal Activity ABUTH (phytotoxicity rating, scale 0-100) ([9]; 250 g ai/ha): 100 | Pre-emerge crop damage CORN (phytotoxicity rating, scale 0-100) ([10]; 63 g ai/ha): 30 | Pre-emerge crop damage CORN (phytotoxicity rating, scale 0-100) ([10]; 250 g ai/ha): 90 | Pre-emerge crop damage RICE (phytotoxicity rating, scale 0-100) ([11]; 63 g ai/ha): 30 | Pre-emerge crop damage RICE (phytotoxicity rating, scale 0-100) ([11]; 250 g ai/ha): 70 | Post-emerge Herbicidal Activity ECHCG ([12]; 63 g ai/ha): 30 | Post-emerge Herbicidal Activity ECHCG ([12]; 250 g ai/ha): 80 | Post-emerge Herbicidal Activity SETVI ([13]; 63 g ai/ha): 10 | Post-emerge Herbicidal Activity SETVI ([13]; 250 g ai/ha): 70 | Post-emerge Herbicidal Activity IPOHE ([14]; 63 g ai/ha): 100 | Post-emerge Herbicidal Activity IPOHE ([14]; 250 g ai/ha): 100 | Post-emerge Herbicidal Activity SORHA ([15]; 63 g ai/ha): 10 | Post-emerge Herbicidal Activity SORHA ([15]; 250 g ai/ha): 50 | Post-emerge Herbicidal Activity CHEAL ([16]; 63 g ai/ha): 100 | Post-emerge Herbicidal Activity CHEAL ([16]; 250 g ai/ha): 100 | Post-emerge Herbicidal Activity DIGSA ([17]; 63 g ai/ha): 0 | Post-emerge Herbicidal Activity DIGSA ([17]; 250 g ai/ha): 40 | Post-emerge Herbicidal Activity AMARE ([18]; 63 g ai/ha): 95 | Post-emerge Herbicidal Activity AMARE ([18]; 250 g ai/ha): 100 | Post-emerge Herbicidal Activity CASOB ([19]; 63 g ai/ha): 40 | Post-emerge Herbicidal Activity CASOB ([19]; 250 g ai/ha): 100 | Post-emerge Herbicidal Activity ABUTH ([20]; 63 g ai/ha): 100 | Post-emerge Herbicidal Activity ABUTH ([20]; 250 g ai/ha): 100 | Post-emerge Herbicidal Activity CORN (crop damage) ([21]; 63 g ai/ha): 45 | Post-emerge Herbicidal Activity CORN (crop damage) ([21]; 250 g ai/ha): 80 | Post-emerge Herbicidal Activity RICE (crop damage) ([22]; 63 g ai/ha): 30 | Post-emerge Herbicidal Activity RICE (crop damage) ([22]; 250 g ai/ha): 60

CCOC(=O)C(C)Oc1c(Cl)cc(F)c(-n2c(=O)cc(C(F)(F)F)n(C)c2=O)c1N (stereo not shown) [Compound 1-60]
Pre-emerge Herbicidal Activity AMARE (phytotoxicity rating, scale 0-100) ([1]; 63 g ai/ha): 100 | Pre-emerge Herbicidal Activity AMARE (phytotoxicity rating, scale 0-100) ([1]; 250 g ai/ha): 100 | Pre-emerge Herbicidal Activity ECHCG (phytotoxicity rating, scale 0-100) ([2]; 63 g ai/ha): 50 | Pre-emerge Herbicidal Activity ECHCG (phytotoxicity rating, scale 0-100) ([2]; 250 g ai/ha): 95 | Pre-emerge Herbicidal Activity SETVI (phytotoxicity rating, scale 0-100) ([3]; 63 g ai/ha): 95 | Pre-emerge Herbicidal Activity SETVI (phytotoxicity rating, scale 0-100) ([3]; 250 g ai/ha): 100 | Pre-emerge Herbicidal Activity IPOHE (phytotoxicity rating, scale 0-100) ([4]; 63 g ai/ha): 90 | Pre-emerge Herbicidal Activity IPOHE (phytotoxicity rating, scale 0-100) ([4]; 250 g ai/ha): 100 | Pre-emerge Herbicidal Activity SORHA (phytotoxicity rating, scale 0-100) ([5]; 63 g ai/ha): 80 | Pre-emerge Herbicidal Activity SORHA (phytotoxicity rating, scale 0-100) ([5]; 250 g ai/ha): 100 | Pre-emerge Herbicidal Activity CHEAL (phytotoxicity rating, scale 0-100) ([6]; 63 g ai/ha): 100 | Pre-emerge Herbicidal Activity CHEAL (phytotoxicity rating, scale 0-100) ([6]; 250 g ai/ha): 100 | Pre-emerge Herbicidal Activity DIGSA (phytotoxicity rating, scale 0-100) ([7]; 63 g ai/ha): 95 | Pre-emerge Herbicidal Activity DIGSA (phytotoxicity rating, scale 0-100) ([7]; 250 g ai/ha): 100 | Pre-emerge Herbicidal Activity CASOB (phytotoxicity rating, scale 0-100) ([8]; 63 g ai/ha): 70 | Pre-emerge Herbicidal Activity CASOB (phytotoxicity rating, scale 0-100) ([8]; 250 g ai/ha): 100 | Pre-emerge Herbicidal Activity ABUTH (phytotoxicity rating, scale 0-100) ([9]; 63 g ai/ha): 100 | Pre-emerge Herbicidal Activity ABUTH (phytotoxicity rating, scale 0-100) ([9]; 250 g ai/ha): 100 | Pre-emerge crop damage CORN (phytotoxicity rating, scale 0-100) ([10]; 63 g ai/ha): 50 | Pre-emerge crop damage CORN (phytotoxicity rating, scale 0-100) ([10]; 250 g ai/ha): 95 | Pre-emerge crop damage RICE (phytotoxicity rating, scale 0-100) ([11]; 63 g ai/ha): 40 | Pre-emerge crop damage RICE (phytotoxicity rating, scale 0-100) ([11]; 250 g ai/ha): 95 | Post-emerge Herbicidal Activity ECHCG ([12]; 63 g ai/ha): 0 | Post-emerge Herbicidal Activity ECHCG ([12]; 250 g ai/ha): 20 | Post-emerge Herbicidal Activity SETVI ([13]; 63 g ai/ha): 0 | Post-emerge Herbicidal Activity SETVI ([13]; 250 g ai/ha): 10 | Post-emerge Herbicidal Activity IPOHE ([14]; 63 g ai/ha): 90 | Post-emerge Herbicidal Activity IPOHE ([14]; 250 g ai/ha): 100 | Post-emerge Herbicidal Activity SORHA ([15]; 63 g ai/ha): 0 | Post-emerge Herbicidal Activity SORHA ([15]; 250 g ai/ha): 20 | Post-emerge Herbicidal Activity CHEAL ([16]; 63 g ai/ha): 99 | Post-emerge Herbicidal Activity CHEAL ([16]; 250 g ai/ha): 100 | Post-emerge Herbicidal Activity DIGSA ([17]; 63 g ai/ha): 0 | Post-emerge Herbicidal Activity DIGSA ([17]; 250 g ai/ha): 50 | Post-emerge Herbicidal Activity AMARE ([18]; 63 g ai/ha): 90 | Post-emerge Herbicidal Activity AMARE ([18]; 250 g ai/ha): 100 | Post-emerge Herbicidal Activity CASOB ([19]; 63 g ai/ha): 50 | Post-emerge Herbicidal Activity CASOB ([19]; 250 g ai/ha): 90 | Post-emerge Herbicidal Activity ABUTH ([20]; 63 g ai/ha): 100 | Post-emerge Herbicidal Activity ABUTH ([20]; 250 g ai/ha): 100 | Post-emerge Herbicidal Activity CORN (crop damage) ([21]; 63 g ai/ha): 0 | Post-emerge Herbicidal Activity CORN (crop damage) ([21]; 250 g ai/ha): 50 | Post-emerge Herbicidal Activity RICE (crop damage) ([22]; 63 g ai/ha): 10 | Post-emerge Herbicidal Activity RICE (crop damage) ([22]; 250 g ai/ha): 40
